Assay results taken from article PMC12006171, “Marsupial cathelicidins: characterization, antimicrobial activity and evolution in this unique mammalian lineage” (Frontiers in Immunology, 2025).
Converted amounts (≈) assume the structure as drawn. Like-named read-outs stand apart in the source and are kept apart here. Where a SMILES comes first, the peptide text is derived from it.

Experiments:
Type in all cases: cell-based
Candida krusei ATCC 6258 = assay: microbe, parasite or virus in culture; conditions: ATCC 6258; for MIC: read-out: MIC C. krusei ATCC
How it was run: (§1)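 MIC defined as lowest peptide level preventing visible growth after 20–24 h at 35°C. Candida tested in RPMI-1640 MOPS; bacteria in Mueller Hinton broth, optionally with 10% lysed horse blood and/or divalent cations. Final peptide range 64-0.125 μg/mL, starting inoculum 5 x 10^5 CFU/mL, per CLSI M07-A/M26A.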

[1] = test system: Streptococcus pneumoniae ATCC 49619; assay: microbe, parasite or virus in culture; conditions: ATCC 49619; read-out: MIC S. pneumoniae ATCC
How it was run: as §1

[2] = test system: Streptococcus agalactiae Clinical isolate - animal; assay: microbe, parasite or virus in culture; conditions: clinical isolate - animal
How it was run: as §1

[3] = test system: Candida parapsilosis ATCC 22019; assay: microbe, parasite or virus in culture; conditions: ATCC 22019; for MIC: read-out: MIC C. parapsilosis ATCC
How it was run: as §1

[4] = test system: Streptococcus agalactiae ATCC 12386; assay: microbe, parasite or virus in culture; conditions: ATCC 12386; read-out: MIC S. agalactiae ATCC
How it was run: as §1

[5] = test system: Candida albicans Clinical isolate - human; assay: microbe, parasite or virus in culture; conditions: Clinical isolate - human; for MIC: read-out: MIC C. albicans
How it was run: as §1

[6] = test system: Staphylococcus aureus ATCC 29213; assay: microbe, parasite or virus in culture; conditions: ATCC 29213
How it was run: (§2)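 Each isolate was exposed to twofold peptide dilutions (final 64-0.125μg/mL) in Mueller Hinton broth, optionally supplemented with calcium and magnesium or 10% lysed horse blood. The MIC was taken as the lowest concentration lacking visible growth after 20–24 hours at 35°C.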

[7] = test system: Pseudomonas aeruginosa ATCC 27853; assay: microbe, parasite or virus in culture; conditions: ATCC 27853
How it was run: as §2

[8] = test system: Staphylococcus aureus clinical isolate - animal; assay: microbe, parasite or virus in culture; conditions: clinical isolate - animal; read-out: MIC S. aureus
How it was run: as §2

[9] = test system: Escherichia coli ATCC 25922; assay: microbe, parasite or virus in culture; conditions: ATCC 25922
How it was run: as §2

[10] = test system: Escherichia coli clinical isolate - animal; assay: microbe, parasite or virus in culture; conditions: clinical isolate - animal
How it was run: as §2

[11] = test system: Pseudomonas aeruginosa clinical isolate - animal; assay: microbe, parasite or virus in culture; conditions: clinical isolate - animal
How it was run: as §2

[12] = test system: Staphylococcus aureus clinical isolate – animal, methicillin-resistant (MRSA); conditions: clinical isolate – animal, methicillin-resistant
Method: (§3) Antimicrobial testing of 78 cathelicidin MPs was performed in two phases as outlined in Figure 1 . In phase I, 40 peptides (27 extant and 13 ancestral) were selected for testing based on rank (outlined above) and similarity to published marsupial cathelicidins with known antimicrobial activity ([33], [41]–[43]). These peptides were tested against nine bacteria (Staphylococcus aureus ATCC 29213 and clinical isolate, Escherichia coli ATCC 25922 and clinical isolate, Pseudomonas aeruginosa ATCC 27853 and clinical isolate, Streptococcus agalactiae ATCC 12386 and clinical isolate, Streptococcus pneumoniae ATCC 49619) and three fungi (Candida krusei ATCC 6258, Candida parapsilosis ATCC 22019, and Candida albicans clinical isolate). Details regarding these strains are available in Supplementary Table 4 . The antimicrobial activity of cathelicidins was determined as the minimum inhibitory concentration (MIC), which was the lowest concentration of cathelicidin that prevented visible bacterial or fungal growth, relative to the negative control. […] Minimum bactericidal concentration (MBC) and/or minimum fungicidal concentration (MFC) was conducted to determine microbicidal versus static action. Activity against S. aureus ATCC, E. coli ATCC, and Pseudomonas aeruginosa ATCC 27853 was examined in the presence of divalent cations to determine the impact of inhibitors.
(§4) Antimicrobial activity was determined using a broth microdilution susceptibility assay in 96 well polypropylene plates according to Clinical Laboratory Standards Institute guidelines M07-A and M26A as described previously ([33], [42], [43]). The bacterial and fungal isolates from humans and animals used in this study are outlined in Supplementary Table 4 . Only yeasts were included in the panel of fungi as they have been used in the susceptibility testing of eutherian ([3], [81]–[83]) and other marsupial cathelicidins previously ([33], [42], [43]). Cathelicidin mature peptides were solubilized in DMSO and serially diluted in duplicate from 128-0.25μg/mL in a final volume of 100µL. For bacteria, cathelicidins were diluted in Mueller Hinton Broth (MHB) with or without 10% lysed horse blood, and with (MH II B) or without (MHB) calcium and magnesium cations. For fungi, cathelicidins were diluted in Roswell Park Memorial Institute medium (RPMI)-1640 MOPS. Ampicillin or tetracycline were included as a positive control for Gram-positive and -negative bacteria respectively, while amphotericin B was used for fungi. A media-only negative control and growth control (no cathelicidin) were also included on each plate. Bacteria were sub-cultured on Muller Hinton agar (MHA) or sheep blood agar (BA), and fungi on Sabouraud dextrose agar (SAB), 20–24 hours prior to the test. Colonies were suspended in saline, the concentration adjusted to a 0.5 McFarland standard, and then diluted in media to a concentration of 1.0 x 10^6 cells/mL. Then, 100μL was added to each well of the cathelicidin dilution plate, giving a final inoculum density of 5 x 10^5 CFU/mL and cathelicidin concentration of 64-0.125μg/mL. Colony counts were performed on MHA/BA/SAB to confirm inoculum density. All plates were incubated at 35°C for 20–24 hours, depending on the strain.
(§5) Colonies were counted and compared to the colony count of the starting inoculum.

[13] = test system: Staphylococcus aureus clinical isolate – animal, penicillin-resistant (PRSA); conditions: clinical isolate – animal, penicillin-resistant (PRSA)
Method: as §3, §4, §5

[14] = read-out: MIC P. aeruginosa ATCC

| SMILES | MIC (Candida krusei ATCC 6258) [µM] | MIC [1] [µM] | MFC C. parapsilosis ATCC [3] [µM] | MIC [3] [µM] | MIC [4] [µM] | MIC [5] [µM] | MIC ([6]; read-out: MIC S. aureus ATCC) [µM] | MIC [7, 14] [µM] | MBC E. coli ATCC [9] | MBC E. coli [10] | MIC in the presence of cations E. coli [10] | MBC P. aeruginosa [11] | MFC C. krusei ATCC (Candida krusei ATCC 6258) [µM] | further results |
| --- | --- | --- | --- | --- | --- | --- | --- | --- | --- | --- | --- | --- | --- | --- |
| CC[C@H](C)[C@H](NC(=O)[C@H](CCCCN)NC(=O)[C@H](Cc1ccccc1)NC(=O)[C@H](CC(N)=O)NC(=O)[C@H](CCCCN)NC(=O)[C@H](CC(C)C)NC(=O)[C@H](CCCNC(=N)N)NC(=O)[C@H](CCCCN)NC(=O)[C@H](CCCCN)NC(=O)[C@@H](NC(=O)[C@H](CCC(=O)O)NC(=O)[C@H](CC(=O)O)NC(=O)CNC(=O)[C@H](Cc1ccccc1)NC(=O)[C@H](CCCCN)NC(=O)[C@H](CCCCN)NC(=O)[C@H](CC(C)C)NC(=O)[C@H](CCCCN)NC(=O)[C@H](CCCCN)NC(=O)[C@H](CCCCN)NC(=O)[C@H](CC(C)C)NC(=O)[C@H](Cc1c[nH]c2ccccc12)NC(=O)[C@H](CCCNC(=N)N)NC(=O)[C@H](Cc1ccccc1)NC(=O)CNC(=O)CNC(=O)[C@H](CCCNC(=N)N)NC(=O)[C@@H](N)CCCCN)[C@@H](C)CC)C(=O)NCC(=O)N[C@@H](Cc1ccccc1)C(=O)N[C@@H](CC(C)C)C(=O)N[C@H](C(=O)N1CCC[C@H]1C(=O)N[C@@H](CC(C)C)C(=O)O)[C@@H](C)CC [MAP13] (H-KRGGFRWLKKKLKKFGDEIKKRLKNFKIGFLIPL-OH) | >15.4 | >15.4 | > 15.4 | 7.7 (≈ 31.8 µg/mL) | >15.4 | >15.4 | >15.4 | 7.7 (≈ 31.8 µg/mL) | 7.7 (7.7)^7.7 µM | 7.7 (7.7)^7.7 µM | 7.7 (7.7)^7.7 µM | 15.4 (15.4)^15.4 µM | – | MIC ([2]; read-out: MIC S. agalactiae): >15.4 µM; MBC P. aeruginosa ATCC [7]: 15.4 µM (≈ 63.6 µg/mL); MIC ([7]; read-out: MIC in the presence of cations P. aeruginosa ATCC): 15.4 µM; MIC [8]: >15.4 µM; MIC E. coli ATCC [9]: 7.7 (7.7)^7.7 µM; MIC in the presence of cations E. coli ATCC [9]: 7.7 (7.7)^7.7 µM; MIC E. coli [10]: 7.7 (7.7)^7.7 µM; MIC P. aeruginosa [11]: 15.4 (15.4)^15.4 µM; MIC in the presence of cations P. aeruginosa [11]: 15.4 (15.4)^15.4 µM |
| CC[C@H](C)[C@H](NC(=O)CNC(=O)[C@H](C)NC(=O)[C@H](CC(C)C)NC(=O)[C@@H](NC(=O)[C@H](CCCNC(=N)N)NC(=O)[C@@H](NC(=O)[C@H](CCCNC(=N)N)NC(=O)[C@@H](N)CCCCN)[C@@H](C)CC)[C@@H](C)CC)C(=O)N[C@@H](Cc1c[nH]c2ccccc12)C(=O)N[C@@H](CC(=O)O)C(=O)N[C@@H](CCCNC(=N)N)C(=O)N[C@@H](CC(C)C)C(=O)N[C@@H](CCCCN)C(=O)N[C@@H](CC(N)=O)C(=O)N[C@@H](CC(C)C)C(=O)NCC(=O)N[C@@H](CC(N)=O)C(=O)N[C@@H](CCCNC(=N)N)C(=O)N[C@H](C(=O)N[C@@H](CCCCN)C(=O)N[C@@H](CC(N)=O)C(=O)N[C@@H](CCCNC(=N)N)C(=O)N[C@@H](CC(C)C)C(=O)N[C@@H](CCCNC(=N)N)C(=O)N[C@@H](CC(=O)O)C(=O)N[C@@H](Cc1ccccc1)C(=O)N[C@@H](Cc1ccccc1)C(=O)N[C@@H](CO)C(=O)O)[C@@H](C)CC [AnstCath5] (H-KRIRILAGIWDRLKNLGNRIKNRLRDFFS-OH) | – | >17.9 | > 27.1 | 13.5 (≈ 48.2 µg/mL) | >17.9 | – | 4.4 (≈ 15.7 µg/mL) | >17.9 | 8.9 µM (≈ 31.8 µg/mL) | 17.9 µM (≈ 63.9 µg/mL) | 8.9 µM | 17.9 µM (≈ 63.9 µg/mL) | 13.5 (≈ 48.2 µg/mL) | MIC C. krusei ATCC (Candida krusei ATCC 6258): 13.5 µM (≈ 48.2 µg/mL); MBC S. agalactiae [2]: 8.9 µM (≈ 31.8 µg/mL); MIC S. agalactiae [2]: 8.9 µM (≈ 31.8 µg/mL); MFC C. albicans [5]: > 27.1 µM; MIC C. albicans [5]: 27.1 µM (≈ 96.8 µg/mL); MBC S. aureus ATCC [6]: 8.9 µM (≈ 31.8 µg/mL); MIC ([6]; read-out: MIC in the presence of cations S. aureus ATCC): 4.4 µM; MIC ([9]; read-out: MIC E. coli ATCC): 4.4 µM (≈ 15.7 µg/mL); MIC ([9]; read-out: MIC in the presence of cations E. coli ATCC): 4.4 µM; MIC [10]: 8.9 µM (≈ 31.8 µg/mL); MIC ([11]; read-out: MIC P. aeruginosa): 8.9 µM (≈ 31.8 µg/mL); MIC ([11]; read-out: MIC in the presence of cations P. aeruginosa): 17.9 µM; MBC MRSA [12]: 8.9 µM (≈ 31.8 µg/mL); MIC MRSA [12]: 4.4 µM (≈ 15.7 µg/mL); MBC PRSA [13]: 4.4 µM (≈ 15.7 µg/mL); MIC PRSA [13]: 4.4 µM (≈ 15.7 µg/mL) |
| CC[C@H](C)[C@H](NC(=O)[C@H](CCCNC(=N)N)NC(=O)[C@@H](N)CCCCN)C(=O)NCC(=O)N[C@@H](Cc1ccccc1)C(=O)NCC(=O)N[C@@H](CC(C)C)C(=O)N[C@@H](Cc1ccccc1)C(=O)N[C@@H](Cc1c[nH]c2ccccc12)C(=O)N[C@@H](CC(=O)O)C(=O)NCC(=O)N[C@@H](CC(C)C)C(=O)N[C@@H](CCCNC(=N)N)C(=O)N[C@@H](CCCCN)C(=O)N[C@@H](CC(C)C)C(=O)NCC(=O)N[C@@H](CC(N)=O)C(=O)N[C@@H](CCCNC(=N)N)C(=O)N[C@H](C(=O)N[C@@H](CCCCN)C(=O)N[C@@H](CC(N)=O)C(=O)N[C@@H](CCCNC(=N)N)C(=O)N[C@H](C(=O)N[C@@H](CCCNC(=N)N)C(=O)N[C@@H](CC(=O)O)C(=O)N[C@@H](Cc1ccccc1)C(=O)N[C@@H](Cc1ccccc1)C(=O)N[C@@H](CO)C(=O)N[C@@H](CCCCN)C(=O)N[C@@H](Cc1ccccc1)C(=O)N[C@@H](CC(C)C)C(=O)NCC(=O)O)[C@@H](C)CC)[C@@H](C)CC [MAP9] (H-KRIGFGLFWDGLRKLGNRIKNRIRDFFSKFLG-OH) | 8.2 (≈ 31.6 µg/mL) | – | > 16.5 | – | – | >16.5 | – | – | – | – | – | – | 16.5 (≈ 63.6 µg/mL) | MIC C. parapsilosis ATCC [3]: 16.5 µM (≈ 63.6 µg/mL) |
